Measurements from patent US20240247015A1, “PHOSPHORUS DERIVATIVES AS NOVEL SOS1 INHIBITORS” (BAYER AKTIENGESELLSCHAFT, priority 2021, published 2024).

Each compound was assayed against interaction of human SOS1 (SOS1) with human K-RasG12C (Homo sapiens (Human), UniProt Q07889) (assay: Biochemical assay: hK-RasG12C interaction assay with hSOS1 (HTRF)). Conditions: GST-hK-RasG12C with His-hSOS1, 60 min incubation at 20° C., mean, read-out: K-RasG12C - SOS interaction assay IC50 (mean).
Type: binding
Method: Biochemical Assay: hK-RasG12C Interaction Assay with hSOS1 This assay quantifies the equilibrium interaction of human SOS1 (SOS1) with human K-Ras^G12^C (K-RasG12C). Detection of the interaction is achieved by measuring homogenous time-resolved fluorescence resonance energy transfer (HTRF) from antiGST-Europium (FRET donor) bound to GST-K-RasG12C to anti-6His-XL665 bound to His-tagged hSOS1 (FRET-acceptor). The assay buffer containes 5 mM HEPES pH 7.4 (Applichem), 150 mM NaCl (Sigma), […] (Promega), 1 mM DTT (Thermofisher), 0.05% BSA Fraction V, pH 7.0, (ICN Biomedicals), 0.0025% (v/v) Igepal (Sigma) and 100 mM KF (FLUKA). The expression and purification of N-terminally GST-tagged human K-RasG12C (termed GST-hK-RasG12C) and N-terminally His-tagged human SOS1 (termed His10-hSOS1) is described in WO 2019/201848, page 220 line 12-34 and page 222, line 13-25 (expression) and page 222, line 26 to page 223, line 17 (purification). Concentrations of protein batches used are optimized to be within the linear range of the HTRF signal. A Ras working solution is prepared in assay buffer containing typically 10 nM GST-hK-RasG12C and 2 nM antiGST-Eu(K) (Cisbio, France). A SOS1 working solution is prepared in assay buffer containing typically 20 nM His-hSOS1 and 10 nM anti-6His-XL665 (Cisbio, France). An inhibitor control solution is prepared in assay buffer containing nM anti-6His-XL665 without SOS1. Fifty nl of a 100-fold concentrated solution of the test compound in DMSO are transferred into a black microtiter test plate (384 or 1536, Greiner Bio-One, Germany). For this, either a Hummingbird liquid handler (Digilab, MA, USA) or an Echo acoustic system (Labcyte, CA, USA) is used. All steps of the assay are performed at 20° C. A volume of 2.5 μl of the Ras working solution is added to all wells of the test plate using a Multidrop dispenser (Thermo Labsystems). After 2 min preincubation, 2.5 μl of the SOS1 working solution are added to all wells except for those wells at the side of the test plate that are subsequently filled with 2.5 μl of the inhibitor control solution. After 60 min incubation the fluorescence is measured with a Pherastar (BMG, Germany) using the HTRF module (excitation 337 nm, emission 1: 620 nm, emission 2: 665 nm). The ratiometric data (emission 2 divided by emission 1) are normalized using the controls (DMSO=0% inhibition, inhibition control wells with inhibitor control solution=100% inhibition). Compounds are tested in duplicates at up to 11 concentrations (for 20 μM, 5,7 μM, 1,6 μM, 0.47 μM, 0.13 μM, 38 nM, 11 nM, 3.1 nM, 0.89 nM, 0.25 nM and 0.073 nM). IC50 values are calculated by 4-Parameter fitting using a commercial software package (Genedata Screener, Switzerland).

interaction of human SOS1 (SOS1) with human K-RasG12C, sequence (Q07889 564-1049 limits assumed): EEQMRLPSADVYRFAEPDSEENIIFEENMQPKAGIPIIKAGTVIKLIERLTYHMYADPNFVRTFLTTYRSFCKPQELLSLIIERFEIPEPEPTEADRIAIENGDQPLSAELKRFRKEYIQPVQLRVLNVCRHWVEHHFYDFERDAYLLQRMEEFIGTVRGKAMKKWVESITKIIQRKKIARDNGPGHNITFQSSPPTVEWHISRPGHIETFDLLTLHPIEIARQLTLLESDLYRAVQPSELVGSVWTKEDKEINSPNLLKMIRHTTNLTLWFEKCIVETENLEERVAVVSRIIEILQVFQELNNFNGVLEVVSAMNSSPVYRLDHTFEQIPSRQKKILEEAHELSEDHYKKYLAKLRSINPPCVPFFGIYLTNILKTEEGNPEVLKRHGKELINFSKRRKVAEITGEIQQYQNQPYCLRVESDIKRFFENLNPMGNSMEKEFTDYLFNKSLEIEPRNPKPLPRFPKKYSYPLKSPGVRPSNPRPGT

Row | Compound | IC50 [µM]
1 | CCCCC(C)(O)C(F)(F)c1cccc([C@@H](C)Nc2nc(C)nc3cnc(P(C)(C)=O)cc23)c1F (mixture of isomers) [Example 23, (2RS)-1-{3-[(1R)-1-{[6-(dimethylphosphoryl)-2-methylpyrido[3,4-d]pyrimidin-4-yl]amino}ethyl]-2-fluorophenyl}-1,1-difluoro-2-methylhexan-2-ol] | 0.0124
2 | CCc1nc(P(C)(C)=O)cc2c(N[C@H](C)c3cccc(C(F)(F)C(O)CC)c3F)nc(C)nc12 (mixture of isomers) [Example 38, (2RS)-1-{3-[(1R)-1-{[6-(dimethylphosphoryl)-8-ethyl-2-methylpyrido[3,4-d]pyrimidin-4-yl]amino}ethyl]-2-fluorophenyl}-1,1-difluorobutan-2-ol] | 0.0107
3 | Cc1nc(N[C@H](C)c2cccc(C(F)(F)[C@H](O)C(C)(C)C)c2F)c2cc(P(C)(C)=O)ncc2n1 (relative stereo) [Example 137, (2R*)-1-{3-[(1R)-1-{[6-(dimethylphosphoryl)-2-methylpyrido[3,4-d]pyrimidin-4-yl]amino}ethyl]-2-fluorophenyl}-1,1-difluoro-3,3-dimethylbutan-2-ol] | 0.00404
4 | Cc1nc(NC(C)c2ccnc(C(F)(F)F)c2)c2cc(P(C)(C)=O)ncc2n1 (single isomer, unassigned) [Example 24, 6-(dimethylphosphoryl)-2-methyl-N-{1-[2-(trifluoromethyl)pyridin-4-yl]ethyl}pyrido[3,4-d]pyrimidin-4-amine] | > 20
5 | Cc1nc(NC(C)c2ccnc(C(F)(F)F)c2)c2cc(P(C)(C)=O)ncc2n1 (single isomer, unassigned) [Example 25, 6-(dimethylphosphoryl)-2-methyl-N-{1-[2-(trifluoromethyl)pyridin-4-yl]ethyl}pyrido[3,4-d]pyrimidin-4-amine] | 4.85
6 | CCC(O)C(F)(F)c1cccc([C@@H](C)Nc2nc(C)nc3cnc(P(C)(C)=O)cc23)c1F (single isomer, unassigned) [Example 65, (2R*)-1-{3-[(1R)-1-{[6-(dimethylphosphoryl)-2-methylpyrido[3,4-d]pyrimidin-4-yl]amino}ethyl]-2-fluorophenyl}-1,1-difluorobutan-2-ol] | 0.0105
7 | CCP(C)(=O)c1cc2c(N[C@H](C)c3cccc(C(F)(F)C(C)(C)O)c3F)nc(C)nc2cn1 (single isomer, unassigned) [Example 68] | 0.0282
8 | CCP(C)(=O)c1cc2c(N[C@H](C)c3cccc(C(F)(F)C(C)(C)O)c3F)nc(C)nc2cn1 (single isomer, unassigned) [Example 69] | 0.0195
9 | Cc1nc(N[C@H](C)c2cccc(C(F)(F)C(C)(C)O)c2F)c2cc(P(C)(=O)C(C)C)ncc2n1 (single isomer, unassigned) [Example 71] | 0.0354
10 | Cc1nc(N[C@H](C)c2cccc(C(F)(F)C(C)(C)O)c2F)c2cc(P(C)(=O)C(C)C)ncc2n1 (single isomer, unassigned) [Example 72] | 0.0243
11 | CCP(C)(=O)c1cc2c(N[C@H](C)c3cccc(C(F)(F)C(C)O)c3F)nc(C)nc2cn1 (single isomer, unassigned) [Example 73, (2R*)-1-{3-[(1R)-1-{{6-[ethyl(methyl)phosphoryl]-2-methylpyrido[3,4-d]pyrimidin-4-yl}amino)ethyl]-2-fluorophenyl}-1,1-difluoropropan-2-ol] | 0.0113
12 | CCP(C)(=O)c1cc2c(N[C@H](C)c3cccc(C(F)(F)C(C)O)c3F)nc(C)nc2cn1 (single isomer, unassigned) [Example 74, (2R*)-1-{3-[(1R)-1-{{6-[ethyl(methyl)phosphoryl]-2-methylpyrido[3,4-d]pyrimidin-4-yl}amino)ethyl]-2-fluorophenyl}-1,1-difluoropropan-2-ol] | 0.0246
13 | CCP(C)(=O)c1cc2c(N[C@H](C)c3cccc(C(F)(F)C(C)O)c3F)nc(C)nc2cn1 (single isomer, unassigned) [Example 76, (2R*)-1-{3-[(1R)-1-({6-[ethyl(methyl)phosphoryl]-2-methylpyrido[3,4-d]pyrimidin-4-yl}amino)ethyl]-2-fluorophenyl}-1,1-difluoropropan-2-ol] | 0.0213

The next lines start with the values.

Row | IC50 [µM] | Compound
14 | 0.00785 | Cc1nc(N[C@H](C)c2cccc(C(F)(F)[C@@H](C)O)c2F)c2cc(P(C)(C)=O)ncc2n1 (relative stereo) [Example 113, (2R*)-1-{3-[(1R)-1-{[6-(dimethylphosphoryl)-2-methylpyrido[3,4-d]pyrimidin-4-yl]amino}ethyl]-2-fluorophenyl}-1,1-difluoropropan-2-ol]
15 | 0.0251 | Cc1nc(N[C@H](C)c2cccc(C(F)(F)C(O)C(C)C)c2F)c2cc(P(C)(C)=O)ncc2n1 (single isomer, unassigned) [Example 66, (2R*)-1-{3-[(1R)-1-{[6-(dimethylphosphoryl)-2-methylpyrido[3,4-d]pyrimidin-4-yl]amino}ethyl]-2-fluorophenyl}-1,1-difluoro-3-methylbutan-2-ol]
16 | 0.0153 | CCP(C)(=O)c1cc2c(N[C@H](C)c3cccc(C(F)(F)C(C)O)c3F)nc(C)nc2cn1 (single isomer, unassigned) [Example 75, (2R*)-1-{3-[(1R)-1-{{6-[ethyl(methyl)phosphoryl]-2-methylpyrido[3,4-d]pyrimidin-4-yl}amino)ethyl]-2-fluorophenyl}-1,1-difluoropropan-2-ol]
17 | 0.0178 | CCP(C)(=O)c1cc2c(N[C@H](C)c3cccc(C(F)(F)C(C)O)c3F)nc(C)nc2cn1 (single isomer, unassigned) [Example 77, (2R*)-1-{3-[(1R)-1-{{6-[ethyl(methyl)phosphoryl]-2-methylpyrido[3,4-d]pyrimidin-4-yl}amino)ethyl]-2-fluorophenyl}-1,1-difluoropropan-2-ol]
18 | 0.0218 | CCP(C)(=O)c1cc2c(N[C@H](C)c3cccc(C(F)(F)C(C)O)c3F)nc(C)nc2cn1 (single isomer, unassigned) [Example 78, (2R*)-1-{3-[(1R)-1-{{6-[ethyl(methyl)phosphoryl]-2-methylpyrido[3,4-d]pyrimidin-4-yl}amino)ethyl]-2-fluorophenyl}-1,1-difluoropropan-2-ol]
19 | 0.0123 | Cc1nc(N[C@H](C)c2cccc(C(F)(F)C(C)O)c2F)c2cc(P(C)(=O)C(C)C)ncc2n1 (single isomer, unassigned) [Example 79, (2R*)-1,1-difluoro-1-{2-fluoro-3-[(1R)-1-({2-methyl-6-[methyl(propan-2-yl)phosphoryl]pyrido[3,4-d]pyrimidin-4-yl}amino)ethyl]phenyl}propan-2-ol]
20 | 0.00588 | Cc1nc(N[C@H](C)c2cccc(C(F)(F)C(C)O)c2F)c2cc(P(C)(=O)C(C)C)ncc2n1 (single isomer, unassigned) [Example 80, (2R*)-1,1-difluoro-1-{2-fluoro-3-[(1R)-1-({2-methyl-6-[methyl(propan-2-yl)phosphoryl]pyrido[3,4-d]pyrimidin-4-yl}amino)ethyl]phenyl}propan-2-ol]
21 | 0.0102 | Cc1nc(N[C@H](C)c2cccc(C(F)(F)C(C)O)c2F)c2cc(P(C)(=O)C(C)C)ncc2n1 (single isomer, unassigned) [Example 81, (2R*)-1,1-difluoro-1-{2-fluoro-3-[(1R)-1-({2-methyl-6-[methyl(propan-2-yl)phosphoryl]pyrido[3,4-d]pyrimidin-4-yl}amino)ethyl]phenyl}propan-2-ol]
